Test results taken from paper PMC10349806 (Nature Communications, 2023).
Numbering of substitutions follows the chain as printed. “And” between values parts separate entries of the source, which are not always exact repeats. Identical values can stand only once.

Tests used:
PfCRT variant E198A = target: T1, PfCRT variant E198A (Plasmodium falciparum, UniProt Q9N623, A220S/E198A/I356T/K76T/M74I/N326S/N75E/Q271E/R371I); experiment: CQ uptake assay, oocytes expressing E198A; format: cell-based
T1 sequence (Q9N623 1-424 M74I/N75E/K76T/E198A/A220S/Q271E/N326S/I356T/R371I): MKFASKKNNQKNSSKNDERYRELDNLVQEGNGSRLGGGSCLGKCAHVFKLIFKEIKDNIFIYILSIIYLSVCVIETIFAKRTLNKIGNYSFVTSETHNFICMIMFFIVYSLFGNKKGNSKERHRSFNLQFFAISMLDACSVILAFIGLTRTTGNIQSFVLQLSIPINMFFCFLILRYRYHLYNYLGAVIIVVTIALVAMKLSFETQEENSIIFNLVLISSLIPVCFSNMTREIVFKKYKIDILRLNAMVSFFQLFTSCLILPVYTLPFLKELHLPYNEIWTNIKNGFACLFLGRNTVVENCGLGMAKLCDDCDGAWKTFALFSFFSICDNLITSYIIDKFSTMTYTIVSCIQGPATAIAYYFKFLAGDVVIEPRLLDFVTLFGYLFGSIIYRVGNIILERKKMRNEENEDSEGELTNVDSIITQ
Method: (§1) Site-directed mutagenesis of PfCRT^Dd2 was performed as described using the megaprimer method with overlap extension[21],[54]. The primer pairs used are listed in Supplementary Table 6. Please note that a codon-optimized and oocyte-adapted version of PfCRT^Dd2 was used[22] (Supplementary Fig. 16). The resulting DNA fragment was cloned into the SP64T expression vector and verified by sequencing.
(§2) Oocytes were obtained as described previously. Briefly, adult (>2 years old) female X. laevis frogs (NASCO) were anesthetized in a cooled solution of ethyl 3-amino benzoate methanesulfonate (0.1%, w/v), followed by a surgical removal of parts of the ovary. The ovary lobes were carefully dissected and small pieces of oocytes were incubated in Ca^2+-free ND96 buffer (96 mM NaCl, 2 mM KCl, 1 mM MgCl2 buffered with 5 mM HEPES/NaOH, pH 7.5) supplemented with collagenase D (0.1%, w/v; Roche), BSA (0.5%, w/v), and 9 mm Na2HPO4 at 18 °C for 14-16 h while gentle shaking. After incubation, the oocytes were carefully washed several times with ND96 buffer (96 mM NaCl, 2 mM KCl, 1.8 mM CaCl2, 1 mM MgCl2 buffered with 5 mM HEPES/NaOH, pH 7.5) supplemented with 100 mg l^−1 gentamycin). Defolliculated and healthy-looking stage V-VI oocytes were manually selected for RNA microinjection. The RNA was generated as following: The codon-optimized sequences of PfCRT variants were cloned into the pSP64T expression vector. After vector linearization using the restriction endonucleases BamHI or SalI (New England Biolabs), transcription was performed using the in vitro SP6 mMessage mMachine Kit (Ambion)[34]. The obtained RNA was kept at −80 °C and diluted with nuclease-free water to a concentration of 0.6 μg μl^−1. Precision-bore glass capillary tubes (3.5-inch glass capillaries; Drummond Scientific Co.) were pulled on a vertical puller (P-87 Flaming/Brown micropipette puller, Sutter Instrument Co.), graduated, and placed on a microinjector (Nanoject II Auto-Nanoliter Injector, Drummond Scientific Co.). 50 nl of nuclease-free water alone (control oocytes) or 50 nl of 0.6 μg μl^−1 RNA were injected under stereomicroscopic control. Injected oocytes were incubated for 46–72 h at 18 °C with twice-daily buffer changes before usage in experiments.
Drug uptake assays were performed as described previously[21],[22],[24],[34]. […] The direction of radio-labeled drug transport is here from the mostly acidic extracellular solution (pH 4.5 or 6.0, as indicated) into the oocyte cytosol (pH ∼ 7.2), which corresponds to the efflux of drug from the acidic digestive vacuole (pH 5.2) into the parasite cytoplasm (pH 7.2). The topology of PfCRT in the oolemma is such that both the N- and C-terminus face the extracellular milieu[3],[22]. In the parasite, the N- and C-terminus face the lumen of the digestive vacuole. CQ uptake kinetics were performed by incubating oocytes in ND96 buffer adjusted to a pH of 4.5, 5.0, 5.5, or 6.0 and supplemented with 50 nM [^3H]CQ and one of 7 different CQ concentrations (10 µM, 50 µM, 100 µM, 200 µM, 300 µM, 400 µM, 500 µM CQ). The reaction was stopped at the 60 min time point, which is in the linear uptake range[22],[34] (Supplementary Fig. 17). […] The radioactivity of each sample was measured using a liquid scintillation analyzer Tri-Carb 4910 TR (PerkinElmer). Oocytes that were injected with water instead of RNA were analyzed in parallel, representing the uptake of a drug by diffusion and/or endogenous permeation pathways. […]

PfCRT variant E204A = target: T2, PfCRT variant E204A (Plasmodium falciparum, UniProt Q9N623, A220S/E204A/I356T/K76T/M74I/N326S/N75E/Q271E/R371I); experiment: CQ uptake assay, oocytes expressing E204A; format: cell-based
T2 sequence (Q9N623 1-424 M74I/N75E/K76T/E204A/A220S/Q271E/N326S/I356T/R371I): T1 sequence (Q9N623 1-424 M74I/N75E/K76T/E198A/A220S/Q271E/N326S/I356T/R371I) with A198E, E204A
Method: as §1, §2
(§3) Drug uptake assays were performed as described previously[21],[22],[24],[34]. […] The direction of radio-labeled drug transport is here from the mostly acidic extracellular solution (pH 4.5 or 6.0, as indicated) into the oocyte cytosol (pH ∼ 7.2), which corresponds to the efflux of drug from the acidic digestive vacuole (pH 5.2) into the parasite cytoplasm (pH 7.2). The topology of PfCRT in the oolemma is such that both the N- and C-terminus face the extracellular milieu[3],[22]. In the parasite, the N- and C-terminus face the lumen of the digestive vacuole. CQ uptake kinetics were performed by incubating oocytes in ND96 buffer adjusted to a pH of 4.5, 5.0, 5.5, or 6.0 and supplemented with 50 nM [^3H]CQ and one of 7 different CQ concentrations (10 µM, 50 µM, 100 µM, 200 µM, 300 µM, 400 µM, 500 µM CQ). The reaction was stopped at the 60 min time point, which is in the linear uptake range[22],[34] (Supplementary Fig. 17). For determination of the amount of drug uptake for each oocyte, the reaction medium was removed and the oocytes were washed three times with 2 ml of ice-cold ND96 buffer. Each oocyte was individually transferred to a scintillation vial containing 5% sodium dodecyl sulfate (200 μl) for lysis. The radioactivity of each sample was measured using a liquid scintillation analyzer Tri-Carb 4910 TR (PerkinElmer). Oocytes that were injected with water instead of RNA were analyzed in parallel, representing the uptake of a drug by diffusion and/or endogenous permeation pathways. The resulting value represents the “background“ level of drug accumulation in oocytes (in-depth discussion in[22]). […]

PfCRT variant D313A = experiment: CQ uptake assay, oocytes expressing D313A; format: cell-based, Plasmodium falciparum
Method: as §1, §2, §3

[1] = E198A, 50 µM CQ, 1 h, mean ± SEM
[2] = pH 4.5, single replicates, Fig 1d left
[3] = pH 6.0, single replicates, Fig 1d left
[4] = E204A, 50 µM CQ, 1 h, mean ± SEM
[5] = D313A, 50 µM CQ, 1 h, mean ± SEM

With CCN(CC)CCCC(C)Nc1ccnc2cc(Cl)ccc12 (centres unmarked) [CQ, chloroquine] the “Activity at pH 4.5” value (PfCRT variant E198A; [1]) was 1.23 ± 0.15 pmol h-1 oocyte-1, the “Activity at pH 6.0” value (PfCRT variant E198A; [1]) was 3.10 ± 0.44 pmol h-1 oocyte-1 and the R-value (PfCRT variant E198A; E198A, CQ transport at pH 4.5 / pH 6.0) was 0.44 ± 0.11. For the same compound, the “E198A transport activity pH 4.5” value (PfCRT variant E198A; [2]) was 1.49 pmol oocyte-1 h-1 and 1.34 pmol oocyte-1 h-1 and 0.87 pmol oocyte-1 h-1, the “E198A transport activity pH 6.0” value (PfCRT variant E198A; [3]) was 2.08 pmol oocyte-1 h-1 and 3.94 pmol oocyte-1 h-1 and 3.27 pmol oocyte-1 h-1 and the “Activity at pH 4.5” value (PfCRT variant E204A; [4]) was 1.43 ± 0.06 pmol h-1 oocyte-1. For the same compound, the “Activity at pH 6.0” value (PfCRT variant E204A; [4]) was 2.98 ± 0.34 pmol h-1 oocyte-1, the R-value (PfCRT variant E204A; E204A, CQ transport at pH 4.5 / pH 6.0) was 0.51 ± 0.09 and the “E204A transport activity pH 4.5” value (PfCRT variant E204A; [2]) was 1.57 pmol oocyte-1 h-1 and 1.35 pmol oocyte-1 h-1 and 1.36 pmol oocyte-1 h-1. The “E204A R-value” (PfCRT variant E204A; pH 4.5 vs pH 6.0, Fig 1d left) was 0.72 and 0.42 and 0.38, the “E204A transport activity pH 6.0” value (PfCRT variant E204A; [3]) was 2.18 pmol oocyte-1 h-1 and 3.22 pmol oocyte-1 h-1 and 3.54 pmol oocyte-1 h-1 and the “Activity at pH 4.5” value (PfCRT variant D313A; [5]) was 1.49 ± 0.21 pmol h-1 oocyte-1. For the same compound, the “Activity at pH 6.0” value (PfCRT variant D313A; [5]) was 4.55 ± 0.45 pmol h-1 oocyte-1, the R-value (PfCRT variant D313A; D313A, CQ transport at pH 4.5 / pH 6.0) was 0.33 ± 0.04 and the “D313A transport activity pH 4.5” value (PfCRT variant D313A; [2]) was 2.00 pmol oocyte-1 h-1 and 1.13 pmol oocyte-1 h-1 and 1.34 pmol oocyte-1 h-1. The “D313A R-value” (PfCRT variant D313A; pH 4.5 vs pH 6.0, Fig 1d left) was 0.38 and 0.23 and 0.39 and the “D313A transport activity pH 6.0” value (PfCRT variant D313A; [3]) was 5.27 pmol oocyte-1 h-1 and 4.91 pmol oocyte-1 h-1 and 3.47 pmol oocyte-1 h-1.
